“Also recorded” adds a separate entry of the source.
Columns and labels:
[1] = test system: constitutive nuclear transcription factor Oct1; assay: EMSA of Oct1 binding to its probe, HeLa nuclear extracts; assay type: cell-based, human; settings: peptide 10-50 μM
[2] = test system: canonical NF-κB signaling through IKK2 in HeLa cells; assay: Western blot of canonical NF-κB signaling in TNF-α-treated HeLa cells; assay type: cell-based, human; settings: increasing peptide concentrations
Experimental: (§1) To prepare nuclear and cytoplasmic protein extracts, HeLa, MEF, and RAW 264.7 cells were lysed in buffer containing 4.3 mM Na2HPO4, 1.47 mM KH2PO4 pH 7.4, 137 mM NaCl, 2.7 mM KCl, 1 mM DTT, 0.05% (v/v) NP-40, and 1×protease inhibitor cocktail for 10 minutes on ice and spun at 3,000 rpm at 4° C. for 10 minutes. The supernatant containing the cytoplasmic fraction was quantified by Bio-Rad protein assay to determine the total amount of protein. Pellets were resuspended in nuclear extraction buffer (25 mM Tris-HCl pH 7.5, 420 mM NaCl, 10% glycerol, 0.2 mM EDTA, 1 mM DTT, 0.5 mM PMSF, 1×protease inhibitor cocktail) once and then subjected to three lysis cycles (freeze at −80° C. and thaw at 37° C.). Finally, samples were centrifuged at 13,000 rpm at 4° C. for 20 minutes, and supernatants containing the soluble nuclear fraction were measured by the Bio-Rad protein assay to determine the total amount of protein. Nuclear and cytoplasmic extracts were aliquoted and kept at −80° C.
(§2) HeLa, MEF, RAW 264.7 cells were cultured in Dulbecco's MEM containing 10% fetal bovine […] supplemented with penicillin and streptomycin, at 37° C. in a humidity incubator with 5% CO2. RAW 264.7 cells were seeded and allowed to adhere for 24 hours then treated with NEMO^ActPep or NEMO^ActPep 6G at different concentrations 60 min before the LPS challenge (100 ng/ml). After 2 hours, nuclear and cytoplasmic extracts were collected. HeLa and MEF cells seeded for 24 hours then treated with NEMO^ActPep or NEMO^ActPep 6G at different concentrations 60 min before the TNF-α challenge (10 ng/ml) for 15 minutes and then nuclear and cytoplasmic extracts were collected. MEF cells were treated with NEMO^ActPep or NEMO^ActPep 6G at different concentrations 1 hour before the LTβR challenge (300 ng/ml). After 24 hours whole cell extracts were collected and aliquoted and kept at −80° C. for further experiments.
(§3) Equivalent amounts of protein from cell extracts was separated by SDS-PAGE and transferred to polyvinylidene fluoride (PVDF) membranes (Millipore, Bedford, MA, USA). The membrane was blocked with 5% bovine serum albumin (BSA) for 1 hour at room temperature and then the membrane was incubated with the primary antibodies overnight at 4° C. Antibodies for IKK2, His, HA, Myc, GST, Ubiquitin, IκBα, phospho-IKK2, p65/ReIA, p84, γ-Actin, p100/52, phospho-ERK, phospho-JNK, phospho-p38, ERK, JNK, and p38 were used for detecting multiple specific protein targets. After binding of an appropriate secondary antibody coupled to horseradish peroxidase, the immunoreactive bands were visualized by enhanced chemiluminescence substrate.
The inhibitory effects of TAT-NEMO^ActPep were further verified on canonical NF-κB signaling in HeLa cells by assessing IKK2 activation loop phosphorylation, IκBα degradation, and NF-κB ReIA/p65 subunit subcellular localization. Consistent with the observations of decreased nuclear NF-κB DNA binding activity by EMSA, treatment with TAT-NEMO^ActPep blocked IKK2 phosphorylation, IκBα proteolysis, and nuclear translocation of ReIA (FIG. 5B).

[3] = test system: NF-κB DNA binding in RAW 264.7 murine macrophage cells; assay: EMSA of NF-κB DNA binding, nuclear lysates of LPS-treated RAW 264.7 cells; assay type: cell-based
Experimental: as §1
HeLa, MEF, RAW 264.7 cells were cultured in Dulbecco's MEM containing 10% fetal bovine […] supplemented with penicillin and streptomycin, at 37° C. in a humidity incubator with 5% CO2. RAW 264.7 cells were seeded and allowed to adhere for 24 hours then treated with NEMO^ActPep or NEMO^ActPep 6G at different concentrations 60 min before the LPS challenge (100 ng/ml). After 2 hours, nuclear and cytoplasmic extracts were collected. […]
(§4) Electrophoretic mobility shift assay (EMSA) was performed using recombinant full length NF-κB ReIA homodimer as a positive control as previously described (45). […] The amount of protein in lysates was quantified by Bio-Rad protein assay. EMSA analysis with quantitative densitometry and signal intensity was quantitated using ImageJ software. […]
(§5) It was then tested if the observed effect is universal across species and cell types. […] The effect of TAT-NEMO^ActPep on NF-κB DNA binding was also analyzed in MEF cells by EMSA.

[4] = test system: canonical NF-κB signaling through IKK2 in RAW 264.7 murine macrophage cells; assay: Western blot of canonical NF-κB signaling in LPS-treated RAW 264.7 cells; assay type: cell-based; settings: 100 ng/mL LPS for 2 hours
Experimental: as §1, §2, §3
It was then tested if the observed effect is universal across species and cell types. The effect of TAT-NEMO^ActPep was tested in RAW 264.7 murine macrophage cells treated with 100 ng/mL purified bacterial lipopolysaccharide (LPS) for 2 hours. Again, NF-κB DNA binding and ReIA subunit nuclear localization were both inhibited as were phosphorylation of the IKK2 activation loop and degradation of IκBα. […] The effect of TAT-NEMO^ActPep on NF-κB DNA binding was also analyzed in MEF cells by EMSA.

[5] = test system: NF-κB DNA binding in MEF cells; assay: EMSA of NF-κB DNA binding in TNF-α-treated MEF cells; assay type: cell-based, mouse; settings: peptide 10-50 μM
Experimental: as §1, with “Pellets were resuspended in nuclear extraction buffer (25 mM Tris-HCl pH 7.5, 420 mM NaCl, 10% glycerol, 0.2 mM EDTA, 1 mM DTT, 0.5 mM PMSF, 1×protease inhibitor cocktail) once and then subjected to three lysis cycles (freeze at −80° C. and thaw at 37° C.).” left out, “Nuclear and cytoplasmic extracts were aliquoted and kept at −80° C.” left out
as §4, §5

[6] = test system: MAP kinases JNK, Erk2 and p38; assay: Western blot of MAP kinase phosphorylation in TNF-α-treated HeLa cells; assay type: cell-based, human
Experimental: as §3
It was also tested if TAT-NEMO^ActPep has any effect on non-canonical NF-κB signaling. This alternative NF-κB signaling pathway is activated in response to stimulation of specific cytokine receptors and leads to activation of IKK1 and consequent processing of the p100 precursor to the mature NF-κB subunit p52 (30,31). […] To further investigate the possible involvement of TAT-NEMO^ActPep in other signaling pathways, the effect of the peptide on MAPK activation was tested by monitoring the phosphorylation status of JNK, Erk2, and p38 upon TNF-α treatment of HeLa cells. […]

Substance: TAT-NEMO^ActPep: HIV-1 TAT fused flexibly to human NEMO amino acids 375-391; cell permeable version of NEMO activation peptide (SEQ ID NO 2) (YGRKKRRQRRRGGLSSPLALPSQRRSPPEE)
- binding of Oct1 to its probe (EMSA) [1]: not affected
- IKK2 activation loop phosphorylation (western blot) [2]: blocked; also recorded: significantly diminished
- IκBα degradation / proteolysis (western blot) [2]: blocked; also recorded: significantly diminished
- NF-κB ReIA/p65 subunit nuclear localization (western blot) [2]: blocked; also recorded: significantly diminished
- NF-κB activity by EMSA relative to TAT-NEMO^ActPep 6G, compared with HeLa cells ([3]; LPS-treated RAW 264.7 nuclear lysates, peptide 5-55 μM): to a similar degree as that observed in HeLa cells
- NF-κB DNA binding ([3]; RAW 264.7 cells, 100 ng/mL LPS for 2 hours): inhibited
- ReIA subunit nuclear localization (western blot) [4]: inhibited
- degradation of IκBα (western blot) [4]: inhibited
- phosphorylation of the IKK2 activation loop (western blot) [4]: inhibited
- NF-κB activation in response to TNF-α (EMSA) [5]: inhibited NF-κB activation
- phosphorylation of JNK, Erk2 and p38 MAP kinases (western blot) [6]: Neither TAT-NEMO^ActPep nor TAT-NEMO^ActPep 6G influenced; also recorded: no effect
